Here are results for 1 substance from patent US10202604B2, “Methods of using microRNA-141” (Stemirna Therapeutics Co., Ltd., priority 2016, dated 2019).

The test system of data set [1] is Du145 cells. In words: Boyden chamber Matrigel invasion assay. It counts as cell-based, human. To be noted: miR-141 oligos 30 nM, 48 h vs NC. As for the experimental part:
FIGS. 3A-3J show partial suppression of epithelial to mesenchymal transition by miR-141 and CD44 as a direct target of miR-141. FIGS. 3A-3B show qPCR analysis of epithelial to mesenchymal transition markers in bulk (FIG. 3A) or CD44^+ (FIG. 3B) Du145 cells transfected with the miR-141 oligos (30 nM; 48 h). Results were presented as the relative expression levels over the cells transfected with the NC oligos. […] GAPDH was used as control and the relative protein levels after normalizing to GAPDH and NC controls were indicated below each lane. […] Shown below is the actual sequence in the region with the mutated miR-141 binding sequence indicated in grey (below). […] Shown are representative images. […]
Du145 cells transfected with NC or miR-141 oligos at the two doses and time intervals indicated were used in Western blotting. Indicated below are relative expression levels (normalized to respective GAPDH and compared to NC) of each protein determined by densitometric scanning of the individual bands. […]
FIG. 6A: Putative binding site of miR-141 in EZH2 3′-UTR. […] Relative protein levels were measured by densitometry and normalized to GAPDH levels (indicated below). […]
For Boyden Chamber invasion assays, Biocoat Matrigel Invasion Chamber (BD, Franklin Lakes, N.J.) was employed following the manufacturer's instructions. […] Representative images were taken for each membrane and cells were counted. […]

Data set [2] deals with epithelial to mesenchymal transition markers in Du145 cells. In words: qPCR analysis of epithelial to mesenchymal transition markers. It counts as cell-based, human. As to the method:
(§1) FIGS. 3A-3J show partial suppression of epithelial to mesenchymal transition by miR-141 and CD44 as a direct target of miR-141. FIGS. 3A-3B show qPCR analysis of epithelial to mesenchymal transition markers in bulk (FIG. 3A) or CD44^+ (FIG. 3B) Du145 cells transfected with the miR-141 oligos (30 nM; 48 h). Results were presented as the relative expression levels over the cells transfected with the NC oligos. […] GAPDH was used as control and the relative protein levels after normalizing to GAPDH and NC controls were indicated below each lane. […] Shown below is the actual sequence in the region with the mutated miR-141 binding sequence indicated in grey (below). […] Shown are representative images. […] Du145 cells were co-transfected with NC or miR-141 oligos (30 nM) together with pBabe empty vector or pBabe-CD44 vector. After 48 h, cells were harvested for invasion assays. Bars, mean±SD. *, P<0.05; **, P<0.01.
Total RNA was extracted using microRNA isolation kit (Life Technologies) according to the manufacturer's instructions. microRNA qPCRs were performed using TaqMan microRNA assays (Life Technologies). qPCR data for microRNAs were normalized to RNU48 whereas qPCR data for mRNAs were normalized to GAPDH.

In data set [3] the test system is human CD44 3'-UTR. In words: CD44 3'-UTR luciferase reporter assay. It counts as cell-based. To be noted: Du145 cells. As for the experimental part:
as §1, with “Bars, mean±SD. *, P<0.05; **, P<0.01.” left out
The human CD44 3′-UTR was amplified from Du145 genomic DNA using primers 5′-[…]-3′ (SEQ ID NO: 2) and 5′-[…]-3′ (SEQ ID NO: 3), as previously described (13). […] The luciferase activities were detected using Duo-luciferase reporter assay system (Promega). Human RAC1, CDC42, CDC42EP3, and ARPC5 3′-UTR luciferase reporter constructs were obtained from SwitchGear Genomics (Menlo Park, Calif.) and luciferase activities were measured per the manufacturer's instructions using LightSwitch luciferase assay kit.
On the technique in general: A reporter such as luciferase makes a cellular process visible.

Turning to “miR-141: miR-141 mirVana mimics (Life Technologies); microRNA-141 oligonucleotide may have SEQ ID NO: 1; in some experiments over-expressed by lentiviral vectors (UAACACUGUCUGGUAAAGAUGG; listed as RNA, further chemistry not given here) [miR-141 mirVana mimics (Life Technologies); in some experiments over-expressed by lentiviral vectors]”, the Du145 cell invasion entry in data set [1] is on record as “inhibited”. Also, in data set [2] (CD44+ Du145 cells, 30 nM, 48 h), the “E-cadherin (CDH1) mRNA” value is given as “significant increase”; the “mRNA levels of mesenchymal markers including VIM and ZEB1” value was “generally reduced”. The “mRNA levels of most other EMT markers including FN, ZEB2, SNAI1, SNAI2, and TWIST” value in data set [2] (bulk Du145 cells) was “did not reduce”. Moreover, in data set [2] (bulk Du145 cells, 30 nM, 48 h), the “E-cadherin mRNA” value is on record as “increased”; the “VIM and ZEB1 mRNA” value was “decreased”. The “luciferase activity, CD44 3'-UTR with mutated miR-141 binding sequence” value in data set [3] was “abrogated the suppressive effect of miR-141”. The “luciferase activity, wild-type CD44 3'-UTR reporter” value in data set [3] (vs negative control oligos) was “lower”.
